Read-outs that look alike come from different tables or passages of the source.
Tests used:
[1] = tested on: SNB-19 glioblastoma cells; assay: MTT cytotoxicity assay, SNB-19; assay type: cell-based; details: Homo sapiens, 72 h incubation, mean ± SEM of three experiments, read-out: Cytotoxicity (GI50) against SNB-19
Protocol: (§1) The cytotoxicity of the synthesized series of 4-substituted 5, 13–17, 22, 23, 2-substituted 25–30 and 2,4-disubstituted 1-hydroxy-9,10-anthraquinones 33–38, 40–45 was evaluated against a panel of seven different human cancer cell lines (glioblastoma cancer cells, human prostate cancer cells, T-cellular human leucosis, breast cancer cells) and also a normal cell line of hTERT-immortalized lung fibroblasts, using conventional MTT assay. Doxorubicin (DOX) is clinically used to treat cancer as drug in world and have a very wide antitumor spectrum. That we use them as positive control compounds. The cytotoxicity was determined by measuring the concentration inhibiting human tumor cell viability by 50% (GI50).
(§2) The human cancer cells of the glioblastoma (U-87MG, SNB-19, T98G), prostate cancer cell line (LNCAP, DU-145), the cells of T-cellular human leucosis (MT-4) and human breast cancer cells (MDA-MB-231) were used in this study. The cells were cultured in the RPMI-1640 medium that contained 10% embryonic calf serum, L-glutamine (2 mmol/L), gentamicin ([…]) and lincomycin (30 mkg/mL) in a CO2 incubator at 37 °C. The tested compounds were dissolved in DMSO and added to the cellular culture at the required concentrations. Three wells were used for each concentration. The cells which were incubated without the compounds were used as a control. Cells were placed on 96-well microliter plates and cultivated at 37 °C in 5% CO2/95% air for 72 h. The cell viability was assessed through an MTT [3-(4,5-dimethylthiazol-2-yl)-[…]-2H-tetrazolium bromide] conversion assay. A total of 1% MTT was added to each well. Four hours later, DMSO was added and mixed for 15 min. Optical density (D) of the samples was measured on a BioRad 680 multi-well spectrophotometer (USA) at the wavelength of 450 nm. The 50% cytotoxic dose GI50) of each compound (i.e., the compound concentration that causes the death of 50% of cells in a culture, or decreases the optical density twice as compared to the control wells) was calculated from the data obtained. Statistical processing of the results was performed using the Microsoft Excel-2007, […] 6.0 and GraphPad Prism 5.0 programs. The results are given as an average value ± a deviation from the average (mean ± standard error of the mean (SEM)). Reliability of differences (p) was estimated using the Student t test. The differences with p < 0.05 were considered as reliable. The experimental results are given as the data average values obtained from three independently conducted experiments.

[2] = tested on: LNCAP prostate cancer cells; assay: MTT cytotoxicity assay, LNCAP; assay type: cell-based, human; details: Homo sapiens, LNCaP, 72 h, 72 h incubation, mean ± SEM of three experiments, read-out: Cytotoxicity (GI50) against LNCAP
Protocol: as §1, §2

[3] = tested on: DU-145 prostate cancer cells; assay: MTT cytotoxicity assay, DU-145; assay type: cell-based, human; details: 72 h incubation, mean ± SEM of three experiments, read-out: Cytotoxicity (GI50) against DU-145
Protocol: as §1, §2

[4] = tested on: MT-4 cells of T-cellular human leucosis; assay: MTT cytotoxicity assay, MT-4; assay type: cell-based; details: MT4, 72 h incubation, mean ± SEM of three experiments, read-out: Cytotoxicity (GI50) against MT-4
Protocol: as §1, §2

[5] = tested on: DU-145 cells; assay: DNA synthesis investigation (BrdU/PI flow cytometry), DU-145; assay type: cell-based, human; details: DU-145, treated at GI50 concentration, 24 h, BrdU 30 min
Protocol: (§4) Cell cycle analysis was performed by Flow Cytometry using BrdU and PI staining [63]. For this experiment cells were seeded in 6-well plates (30,000 per plate) and incubate for adhesion for 24 h. […] For the next step the BrdU stock was added at a final concentration of 30 µM and cells were incubated for 30 min. Cells were washed with PBS, harvested using trypsine and resuspended at 0.3 mL of PBS. Permeabilization of cell membrane was performed as follows: 0.7 mL of ice-cold 100% EtOH was added into each sample, mixed gently and incubate at 4 °C for 1 h. Cells were pelleted and supernatant was removed completely. Then 0.5 mL of 2 N HCl/0.5% Triton X-100 was added and samples were incubated 30 min at room temperature. Cells were pelleted again, supernatant was removed. The pellet was resuspended in 0.5 mL of 0.1 M sodium tetraborate for 2 min and cells were pelleted again, washed with 150 µL of PBS/1% BSA and resuspended in 50 µM 0.5% Tween 20/1% BSA/PBS. […] After that the samples were resuspended in 0.5 mL of PBS containing 10 mg/mL RNAse A and 20 mg/mL PI. Samples were incubated at room temperature for 30 min and analyzed immediately or store at 4 °C. CytoFLEX flow cytometer (Beckman Coulter) was used for analysis. The results are presented as a percentage of cell population standing in DNA synthesis process.

[6] = tested on: MDA-MB-231 breast cancer cells; assay: MTT cytotoxicity assay, MDA-MB-231; assay type: cell-based; details: Homo sapiens, 72 h incubation, mean ± SEM of three experiments, read-out: Cytotoxicity (GI50) against MDA-MB-231
Protocol: as §1, §2

[7] = tested on: DU-145 cells; assay: Cell cycle analysis by flow cytometry (Hoechst 33342), DU-145; assay type: cell-based, human; details: DU-145, treated at GI50 concentration, 24 h
Protocol: We have carried out flow cytometric study of compounds 13, 16 and the isomeric compound 25 (Table 4, Figure 4G,H). Concentrations of 16 and 25 were taken as 5.4 and 14.5 μM, respectively, as per cytotoxic studies (Table 1). After examining the data for 13 (Figure 4G, Table 4), a good number of cells are arrested in Sub-G1, G0/G1 and S phase. Biosynthetic activity is very high during Sub-G1 phase; this is probably achieved by enhancing of apoptosis. The isomeric molecule 25 arrest G0/G1 and S phases, i.e., affecting the DNA synthesis/replication mechanism. Similarly, for 25 a different pattern is observed, i.e., variations at S and G2/M phases were observed, in comparison to the control. […] Some difference in the mechanism of operation of 13 and 25 has been observed during the progression of cell cycle like: Sub-G1 phase was highly disturbed by 13 and S and G0/G1 phases were highly disturbed by 25.
(§3) For cell cycle analysis cells were seeded in 6-well plates (30,000 per plate) and incubate for adhesion for 24 h. […] Cells were washed with PBS twice, harvested, pelleted and resuspended in 0.5 mL of PBS. For staining the Hoechst 33342 Ready Flow Reagent (Invitrogen) was used according to the instruction. CytoFLEX flow cytometer (Beckman Coulter) was used for analysis. The results are presented as a percentage of cell population standing in different stages of the cell cycle.

[8] = tested on: U-87MG glioblastoma cells; assay: MTT cytotoxicity assay, U-87MG; assay type: cell-based; details: Homo sapiens, 72 h incubation, mean ± SEM of three experiments, read-out: Cytotoxicity (GI50) against U-87MG
Protocol: as §1, §2

[9] = MTT cytotoxicity assay, normal hTERT-immortalized lung fibroblasts; assay type: cell-based; details: human, hTERT-immortalized lung fibroblasts (normal cell line), 72 h incubation, mean ± SEM of three experiments, read-out: Cytotoxicity (GI50) against hTERT Lung Fibroblasts
Protocol: as §1, §2

[10] = tested on: T98G glioblastoma cells; assay: MTT cytotoxicity assay, T98G; assay type: cell-based; details: Homo sapiens, 72 h incubation, mean ± SEM of three experiments, read-out: Cytotoxicity (GI50) against T98G
Protocol: as §1, §2

[11] = tested on: SNB-19 cells; assay: DNA synthesis investigation (BrdU/PI flow cytometry), SNB-19; assay type: cell-based, human; details: SNB-19, treated at GI50 concentration, 24 h, BrdU 30 min
Protocol: as §4

[12] = tested on: SNB-19 cells; assay: Cell cycle analysis by flow cytometry (Hoechst 33342), SNB-19; assay type: cell-based, human; details: SNB-19, treated at GI50 concentration, 24 h
Protocol: Due to the fact that the implementation of the antitumor potential of the currently existing antitumor agents is carried out by acting on various biological targets, at the next stage we performed the cell cycle analysis and DNA synthesis. Cell cycle analysis of 1-hydroxy-4-phenyl-9,10-anthraquinone 13, 1-hydroxy-4-(2,3-dimethoxyphenyl)-9,10- anthraquinone 16, 1-hydroxy-4-(furan-3-yl)-9,10-anthraquinone 23 and 1-hydroxy- 2-(2,3-dimethoxyphenyl)-9,10-anthraquinone 28 against SNB-19 cells for 24 h produced interesting results. After examining the data for compounds 13 and 16 (Table 3, Figure 4C,D), good number of cells are distributed in S phase, i.e., initiated DNA replication mechanism and also in G0/G1 phase, i.e., initial phase of cell cycle. G1 and G2 are the growth phases in cell cycle analysis, whereas S phase is a synthetic phase wherein DNA replication and DNA synthesis take place. The 2-aryl substituted compound 28 initiated the G0/G1 phase in analogy with doxorubicin and mitomycin. […] Further, compounds play a vital role in controlling the regulation of Sub-G1 and G2/M phases. Some difference in the mechanism of operation of 4-aryl substituted 13,16 and 2-aryl substituted 9,10-anthraquinones 28 has been observed during the progression of cell cycle like: S phase was highly disturbed by 13; G0/G1 phase was highly disturbed by 28. […] This observation can be explained by the influence on the cell repair systems that respond to the intercalation of compounds in DNA. […] Further, mitoxantrone promotes the arrest of S phase of cell cycle.
as §3

`O=C1c2ccccc2C(=O)c2c1ccc(-c1ccccc1)c2O` [Compound 25, 1-Hydroxy-2-phenylanthracene-9,10-dione] showed a GI50 [1] of 6.8 ± 1.19 µM, a GI50 [2] of 32.1 ± 8.55 µM and a GI50 ([3]; Homo sapiens, DU-145, 72 h) of 14.5 ± 0.73 µM. For the same molecule, the GI50 [4] was over 100 µM, the “Population (% Cell Distribution) DNA Synthesis” value [5] was 20.27% and the GI50 [6] was 16.5 ± 0.88 µM. The melting point was 174.1 °C (dec.), the “Population (% Cell Distribution) G0/G1” value [7] was 32.3% and the “Population (% Cell Distribution) G2/M” value [7] was 7.4%. The “Population (% Cell Distribution) S” value [7] was 32.4%, the “Population (% Cell Distribution) Sub-G1” value [7] was 25.9% and the “Population (% Cell Distribution) Super-G2” value [7] was 2.0%. It also gave a GI50 [8] of over 100 µM, a GI50 at 72 h [9] of 44.6 ± 2.46 µM and a GI50 [10] of 21.5 ± 0.92 µM.

With `COc1cccc2c1C(=O)c1c(O)c3c(c(O)c1C2=O)C[C@@](O)(C(=O)CO)C[C@@H]3O[C@H]1C[C@H](N)[C@H](O)[C@H](C)O1` [DOX, Doxorubicin, reference compound] the “Population (% Cell Distribution) DNA Synthesis” value [11] was 11.81%, the GI50 [1] was 7.62 ± 0.69 µM and the GI50 [2] was 2.11 ± 0.4 µM. For the same molecule, the GI50 [3] was 6.61 ± 0.34 µM, the GI50 [4] was 0.2 ± 0.04 µM and the “Population (% Cell Distribution) DNA Synthesis” value [5] was 10.76%. For the same molecule, the GI50 [6] was 7.9 ± 0.51 µM, the “Population (% Cell Distribution) G0/G1” value [7] was 48.8% and the “Population (% Cell Distribution) G2/M” value [7] was 15.9%. For the same molecule, the “Population (% Cell Distribution) S” value [7] was 28.1%, the “Population (% Cell Distribution) Sub-G1” value [7] was 0.3% and the “Population (% Cell Distribution) Super-G2” value [7] was 6.8%. For the same molecule, the GI50 [8] was 6.11 ± 0.15 µM, the “Population (% Cell Distribution) G0/G1” value [12] was 49.6% and the “Population (% Cell Distribution) G2/M” value [12] was 19.6%. For the same molecule, the “Population (% Cell Distribution) S” value [12] was 23.2%, the “Population (% Cell Distribution) Sub-G1” value [12] was 1.9% and the “Population (% Cell Distribution) Super-G2” value [12] was 5.7%. It also gave a GI50 at 72 h [9] of 2.2 ± 0.58 µM and a GI50 [10] of 4.5 ± 0.46 µM.

For `CO[C@@]12[C@H](COC(N)=O)C3=C(C(=O)C(C)=C(N)C3=O)N1C[C@@H]1N[C@@H]12` [Mitomycin C, reference compound], the “Population (% Cell Distribution) DNA Synthesis” value [11] was 7.44%, the “Population (% Cell Distribution) DNA Synthesis” value [5] was 5.74% and the “Population (% Cell Distribution) G0/G1” value [7] was 50.3%. For the same molecule, the “Population (% Cell Distribution) G2/M” value [7] was 16.3%, the “Population (% Cell Distribution) S” value [7] was 13.2% and the “Population (% Cell Distribution) Sub-G1” value [7] was 0.1%. For the same molecule, the “Population (% Cell Distribution) Super-G2” value [7] was 20.2%, the “Population (% Cell Distribution) G0/G1” value [12] was 63.6% and the “Population (% Cell Distribution) G2/M” value [12] was 4.1%. For the same molecule, the “Population (% Cell Distribution) S” value [12] was 25.2%, the “Population (% Cell Distribution) Sub-G1” value [12] was 0.0% and the “Population (% Cell Distribution) Super-G2” value [12] was 7.0%.

From publication PMC7321108, “1-Hydroxyanthraquinones Containing Aryl Substituents as Potent and Selective Anticancer Agents” (Molecules, 2020)
